Among the data in patent US20120270237A9, “METHODS FOR THE IDENTIFICATION OF KINASE INTERACTING MOLECULES AND FOR THE PURIFICATION OF KINASE PROTEINS” (Cellzone AG, priority 2009, published 2012) are inhibition and Competition % values, retold here.

Experiment in all cases: Kinobeads competition binding, L-363 cell lysate
Set-up in all cases: endogenous in cells
Holding throughout (settings): 10 μM free compound, L-363 lysate

One assay has as its target T1, AurA (Homo sapiens, UniProt O14965).
T1 sequence (O14965 1-403): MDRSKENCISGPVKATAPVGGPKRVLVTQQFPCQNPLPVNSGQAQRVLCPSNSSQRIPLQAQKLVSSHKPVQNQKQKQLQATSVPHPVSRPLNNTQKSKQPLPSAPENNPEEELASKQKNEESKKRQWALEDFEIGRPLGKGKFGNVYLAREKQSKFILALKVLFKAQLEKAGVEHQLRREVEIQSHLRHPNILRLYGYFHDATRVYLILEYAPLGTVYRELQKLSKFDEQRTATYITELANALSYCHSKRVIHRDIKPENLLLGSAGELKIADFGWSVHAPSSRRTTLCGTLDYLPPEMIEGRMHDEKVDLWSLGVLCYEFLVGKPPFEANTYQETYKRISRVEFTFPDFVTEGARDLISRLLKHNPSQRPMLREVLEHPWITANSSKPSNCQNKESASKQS
The essentials:
(§1)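 L-363 plasma cell leukaemia cells were treated 3 h with 20 μM MG132 before harvest. Lysate was preincubated with 10 μM free compound or DMSO, then captured on matrix bearing immobilized compound; bound proteins were eluted, SDS-PAGE separated, trypsin-digested, iTRAQ-labeled and quantified by LC-MS/MS reporter ions.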

A further assay has as its target IRAK1 (Homo sapiens, UniProt P51617). In short, it runs like this: as §1
A further assay addresses T2, TAO3 (Homo sapiens, UniProt Q9H2K8).
T2 sequence (Q9H2K8 1-898): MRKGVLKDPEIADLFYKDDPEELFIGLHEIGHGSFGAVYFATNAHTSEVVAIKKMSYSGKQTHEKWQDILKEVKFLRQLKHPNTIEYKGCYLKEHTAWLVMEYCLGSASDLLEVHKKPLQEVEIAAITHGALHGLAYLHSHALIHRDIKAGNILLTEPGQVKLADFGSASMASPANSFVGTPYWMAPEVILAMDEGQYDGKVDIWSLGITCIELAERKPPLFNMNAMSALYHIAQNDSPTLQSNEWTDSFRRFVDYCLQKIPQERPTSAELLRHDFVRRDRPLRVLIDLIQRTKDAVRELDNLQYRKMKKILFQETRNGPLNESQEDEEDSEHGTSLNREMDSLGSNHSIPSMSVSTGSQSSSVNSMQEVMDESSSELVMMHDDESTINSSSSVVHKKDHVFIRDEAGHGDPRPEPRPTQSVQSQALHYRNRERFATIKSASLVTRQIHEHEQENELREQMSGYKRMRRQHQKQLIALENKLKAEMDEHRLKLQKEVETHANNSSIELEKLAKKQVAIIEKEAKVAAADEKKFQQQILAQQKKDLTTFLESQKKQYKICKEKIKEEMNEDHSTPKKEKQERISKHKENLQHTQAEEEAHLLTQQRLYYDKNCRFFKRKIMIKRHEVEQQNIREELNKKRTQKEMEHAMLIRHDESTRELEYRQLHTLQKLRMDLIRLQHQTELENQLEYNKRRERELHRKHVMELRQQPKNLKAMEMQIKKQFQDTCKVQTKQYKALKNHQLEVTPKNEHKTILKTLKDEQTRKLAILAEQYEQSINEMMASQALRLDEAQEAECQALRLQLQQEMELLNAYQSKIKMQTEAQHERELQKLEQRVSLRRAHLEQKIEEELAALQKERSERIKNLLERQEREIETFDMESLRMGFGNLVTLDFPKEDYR
The essentials:
as §1

Another assay deals with CDK9 (Homo sapiens, UniProt P50750). In short, it runs like this: as §1
The next assay deals with DNAPK (Homo sapiens, UniProt P78527). In short, it runs like this: as §1
The next assay addresses MYT1 (Homo sapiens, UniProt Q99640). In short, it runs like this:
as §1

The target of the next assay is MARK2 (Homo sapiens, UniProt Q7KZI7). The essentials:
as §1

The next assay has as its target RSK3 (Homo sapiens, UniProt Q15349). The essentials:
as §1

The next assay deals with Wee1 (Homo sapiens, UniProt P30291). In short, it runs like this: as §1
The target in a further assay is BIKE (Homo sapiens, UniProt Q9NSY1). The essentials:
as §1

Another assay concerns the target T3, MST1 (Homo sapiens, UniProt Q13043).
T3 sequence (Q13043 1-487): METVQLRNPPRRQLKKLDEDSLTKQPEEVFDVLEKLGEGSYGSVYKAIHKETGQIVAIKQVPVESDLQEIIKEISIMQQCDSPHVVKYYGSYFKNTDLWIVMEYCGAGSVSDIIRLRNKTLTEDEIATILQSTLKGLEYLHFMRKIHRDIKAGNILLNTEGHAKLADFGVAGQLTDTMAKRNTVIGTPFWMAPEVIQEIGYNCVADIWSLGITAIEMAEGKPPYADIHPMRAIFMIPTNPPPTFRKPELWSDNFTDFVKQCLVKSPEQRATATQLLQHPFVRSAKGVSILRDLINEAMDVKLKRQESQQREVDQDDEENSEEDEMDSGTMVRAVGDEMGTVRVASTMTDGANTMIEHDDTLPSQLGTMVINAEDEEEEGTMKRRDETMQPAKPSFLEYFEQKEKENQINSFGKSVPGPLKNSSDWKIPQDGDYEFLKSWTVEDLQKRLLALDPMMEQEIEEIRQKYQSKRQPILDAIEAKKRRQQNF
The essentials:
as §1

Chain of IRAK1 (P51617 whole entry): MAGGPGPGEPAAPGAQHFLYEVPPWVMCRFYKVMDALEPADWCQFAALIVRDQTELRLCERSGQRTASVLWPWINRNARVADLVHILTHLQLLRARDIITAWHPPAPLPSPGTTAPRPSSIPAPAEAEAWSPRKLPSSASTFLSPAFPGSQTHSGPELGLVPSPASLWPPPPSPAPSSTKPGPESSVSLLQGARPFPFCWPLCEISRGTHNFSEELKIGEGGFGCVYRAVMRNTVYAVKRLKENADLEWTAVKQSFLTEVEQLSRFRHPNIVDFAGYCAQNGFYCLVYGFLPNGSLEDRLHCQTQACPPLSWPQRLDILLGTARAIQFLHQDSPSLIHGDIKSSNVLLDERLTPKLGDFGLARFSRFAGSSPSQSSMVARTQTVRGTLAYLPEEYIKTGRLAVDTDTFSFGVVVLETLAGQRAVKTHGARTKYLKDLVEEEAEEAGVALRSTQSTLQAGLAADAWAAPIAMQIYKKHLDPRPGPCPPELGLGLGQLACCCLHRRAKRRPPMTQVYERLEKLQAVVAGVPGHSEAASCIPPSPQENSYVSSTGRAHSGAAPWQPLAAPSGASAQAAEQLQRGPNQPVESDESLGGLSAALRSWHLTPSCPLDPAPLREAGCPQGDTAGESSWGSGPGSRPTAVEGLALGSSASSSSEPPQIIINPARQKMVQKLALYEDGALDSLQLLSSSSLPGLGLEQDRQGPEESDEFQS
Chain of RSK3 (Q15349 whole entry): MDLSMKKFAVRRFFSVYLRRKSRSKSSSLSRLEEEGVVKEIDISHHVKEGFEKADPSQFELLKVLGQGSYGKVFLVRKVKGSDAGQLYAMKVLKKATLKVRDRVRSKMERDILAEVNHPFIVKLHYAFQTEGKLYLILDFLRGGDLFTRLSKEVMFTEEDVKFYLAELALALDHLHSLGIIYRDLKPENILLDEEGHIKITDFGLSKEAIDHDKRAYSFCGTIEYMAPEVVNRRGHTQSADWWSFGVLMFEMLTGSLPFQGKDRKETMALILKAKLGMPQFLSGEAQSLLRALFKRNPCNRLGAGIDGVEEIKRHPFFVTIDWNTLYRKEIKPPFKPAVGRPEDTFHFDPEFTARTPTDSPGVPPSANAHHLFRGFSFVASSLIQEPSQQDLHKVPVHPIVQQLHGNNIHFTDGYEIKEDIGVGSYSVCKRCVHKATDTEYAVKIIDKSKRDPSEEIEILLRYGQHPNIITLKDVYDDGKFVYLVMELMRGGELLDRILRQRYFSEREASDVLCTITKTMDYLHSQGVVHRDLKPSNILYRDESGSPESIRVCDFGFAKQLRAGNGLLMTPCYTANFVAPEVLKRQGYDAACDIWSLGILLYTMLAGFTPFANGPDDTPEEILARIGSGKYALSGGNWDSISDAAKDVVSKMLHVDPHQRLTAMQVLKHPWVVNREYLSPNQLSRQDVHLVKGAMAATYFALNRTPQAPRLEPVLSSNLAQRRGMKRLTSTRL
Chain of MARK2 (Q7KZI7 whole entry): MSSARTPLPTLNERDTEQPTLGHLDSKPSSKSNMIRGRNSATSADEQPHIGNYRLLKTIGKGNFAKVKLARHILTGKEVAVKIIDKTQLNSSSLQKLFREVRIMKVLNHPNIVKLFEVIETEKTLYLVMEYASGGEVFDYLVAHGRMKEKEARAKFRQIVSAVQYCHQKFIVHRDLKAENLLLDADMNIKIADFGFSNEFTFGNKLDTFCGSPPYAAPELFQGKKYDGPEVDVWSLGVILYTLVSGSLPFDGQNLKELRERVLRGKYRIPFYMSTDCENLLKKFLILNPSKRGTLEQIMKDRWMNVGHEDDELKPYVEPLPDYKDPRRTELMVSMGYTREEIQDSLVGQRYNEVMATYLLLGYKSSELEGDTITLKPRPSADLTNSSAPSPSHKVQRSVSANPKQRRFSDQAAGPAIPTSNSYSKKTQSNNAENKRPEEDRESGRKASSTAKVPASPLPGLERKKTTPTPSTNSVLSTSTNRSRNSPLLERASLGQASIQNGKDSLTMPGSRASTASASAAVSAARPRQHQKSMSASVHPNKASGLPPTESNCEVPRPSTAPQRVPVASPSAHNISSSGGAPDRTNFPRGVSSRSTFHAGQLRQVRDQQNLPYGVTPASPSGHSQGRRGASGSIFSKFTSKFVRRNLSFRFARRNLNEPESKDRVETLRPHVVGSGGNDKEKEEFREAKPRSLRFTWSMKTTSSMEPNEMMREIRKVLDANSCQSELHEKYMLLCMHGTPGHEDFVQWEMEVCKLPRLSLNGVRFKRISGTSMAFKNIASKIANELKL
Chain of BIKE (Q9NSY1 whole entry): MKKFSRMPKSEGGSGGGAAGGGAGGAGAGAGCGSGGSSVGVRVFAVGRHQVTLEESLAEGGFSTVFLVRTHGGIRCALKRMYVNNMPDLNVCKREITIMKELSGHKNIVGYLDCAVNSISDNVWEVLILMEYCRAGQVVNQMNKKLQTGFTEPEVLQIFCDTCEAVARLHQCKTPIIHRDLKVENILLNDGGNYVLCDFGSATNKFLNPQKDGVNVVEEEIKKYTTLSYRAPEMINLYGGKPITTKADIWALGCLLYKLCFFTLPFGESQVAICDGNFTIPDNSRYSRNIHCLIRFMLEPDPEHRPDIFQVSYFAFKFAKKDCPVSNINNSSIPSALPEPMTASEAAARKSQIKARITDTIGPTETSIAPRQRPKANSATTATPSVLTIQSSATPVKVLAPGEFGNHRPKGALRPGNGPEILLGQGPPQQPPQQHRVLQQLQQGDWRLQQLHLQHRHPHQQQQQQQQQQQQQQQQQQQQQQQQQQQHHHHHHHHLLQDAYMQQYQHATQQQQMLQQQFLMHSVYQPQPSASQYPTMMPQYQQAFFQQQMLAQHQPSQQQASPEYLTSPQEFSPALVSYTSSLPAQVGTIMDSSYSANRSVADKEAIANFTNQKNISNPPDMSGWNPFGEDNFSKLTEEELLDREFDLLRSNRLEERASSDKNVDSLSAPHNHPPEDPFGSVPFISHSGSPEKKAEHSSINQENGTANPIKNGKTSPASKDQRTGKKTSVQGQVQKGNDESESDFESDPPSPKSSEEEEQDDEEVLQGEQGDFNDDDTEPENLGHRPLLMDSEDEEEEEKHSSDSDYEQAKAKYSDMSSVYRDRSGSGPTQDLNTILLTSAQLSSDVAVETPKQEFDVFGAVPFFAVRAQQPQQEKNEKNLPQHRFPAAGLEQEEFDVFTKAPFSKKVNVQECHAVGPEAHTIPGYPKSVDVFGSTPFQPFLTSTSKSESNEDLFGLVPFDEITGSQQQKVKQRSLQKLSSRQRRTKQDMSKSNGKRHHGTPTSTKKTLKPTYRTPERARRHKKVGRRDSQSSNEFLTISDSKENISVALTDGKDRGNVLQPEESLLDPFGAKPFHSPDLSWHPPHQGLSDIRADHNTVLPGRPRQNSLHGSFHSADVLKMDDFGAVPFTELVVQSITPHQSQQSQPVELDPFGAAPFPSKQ
Chain of Wee1 (P30291 whole entry): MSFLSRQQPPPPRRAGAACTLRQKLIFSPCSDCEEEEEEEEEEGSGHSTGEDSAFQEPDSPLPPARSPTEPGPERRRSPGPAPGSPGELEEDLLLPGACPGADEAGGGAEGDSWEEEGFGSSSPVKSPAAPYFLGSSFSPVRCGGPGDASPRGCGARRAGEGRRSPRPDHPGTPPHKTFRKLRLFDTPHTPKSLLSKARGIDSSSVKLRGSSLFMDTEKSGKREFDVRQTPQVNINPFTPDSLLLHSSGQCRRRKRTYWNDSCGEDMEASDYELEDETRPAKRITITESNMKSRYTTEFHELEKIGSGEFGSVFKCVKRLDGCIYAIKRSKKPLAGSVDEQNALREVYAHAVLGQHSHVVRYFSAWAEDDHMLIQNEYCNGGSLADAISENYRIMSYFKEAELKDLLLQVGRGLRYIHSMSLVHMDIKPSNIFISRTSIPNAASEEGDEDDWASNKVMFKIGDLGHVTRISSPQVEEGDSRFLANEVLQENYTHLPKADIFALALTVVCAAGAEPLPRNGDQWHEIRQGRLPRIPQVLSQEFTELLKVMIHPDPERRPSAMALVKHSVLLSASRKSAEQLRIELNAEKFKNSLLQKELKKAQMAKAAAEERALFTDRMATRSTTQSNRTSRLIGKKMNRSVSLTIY
Chain of MYT1 (Q99640 whole entry): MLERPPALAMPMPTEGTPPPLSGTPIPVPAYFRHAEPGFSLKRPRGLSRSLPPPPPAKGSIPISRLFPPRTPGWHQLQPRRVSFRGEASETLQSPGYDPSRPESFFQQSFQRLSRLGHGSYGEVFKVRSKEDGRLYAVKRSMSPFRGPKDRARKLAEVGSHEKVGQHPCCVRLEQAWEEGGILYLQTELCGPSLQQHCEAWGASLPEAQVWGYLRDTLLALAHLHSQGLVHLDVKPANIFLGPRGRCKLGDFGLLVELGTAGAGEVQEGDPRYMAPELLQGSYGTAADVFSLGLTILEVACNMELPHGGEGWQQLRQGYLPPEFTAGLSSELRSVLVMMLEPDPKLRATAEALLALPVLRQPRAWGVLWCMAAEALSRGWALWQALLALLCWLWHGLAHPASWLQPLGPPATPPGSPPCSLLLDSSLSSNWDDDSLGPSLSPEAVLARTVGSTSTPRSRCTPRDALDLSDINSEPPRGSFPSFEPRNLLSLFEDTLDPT
Chain of CDK9 (P50750 whole entry): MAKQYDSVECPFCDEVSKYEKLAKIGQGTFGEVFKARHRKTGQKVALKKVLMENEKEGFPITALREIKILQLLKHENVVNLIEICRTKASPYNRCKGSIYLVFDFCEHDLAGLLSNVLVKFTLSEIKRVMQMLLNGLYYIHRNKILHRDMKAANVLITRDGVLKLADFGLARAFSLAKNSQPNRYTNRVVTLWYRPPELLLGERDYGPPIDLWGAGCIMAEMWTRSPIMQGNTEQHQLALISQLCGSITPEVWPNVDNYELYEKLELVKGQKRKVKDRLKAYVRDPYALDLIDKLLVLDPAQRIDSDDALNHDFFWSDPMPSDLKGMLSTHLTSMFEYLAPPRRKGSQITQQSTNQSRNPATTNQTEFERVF

Take `CS(=O)(=O)Nc1ccccc1Nc1nc(Nc2cccc(OCCN)c2)ncc1Cl` [CZC31326, N-(2-(2-(3-(2-aminoethoxy)phenylamino)-5-chloropyrimidin-4-ylamino)phenyl)methanesulfonamide]: the inhibition (in general, the drop in the measured response relative to a control, in per cent) at 10 µM on AurA came to 97%; at IRAK1, 95.1%; at TAO3, 94.7%; on CDK9, 97.7%; on DNAPK, 84%; at MARK2 it was 97%. Moreover, the inhibition at 10 µM on RSK3 stood at 96.9%; at Wee1, 96.4%; at BIKE it was 97%. Moreover, the Competition % on MYT1 was 93.1%; at MST1, 98.3%.
